This is an account of results in patent US20250298027A1, “METHOD OF EVALUATING SMALL MOLECULE DISTRIBUTION USING TELLUROPHENE ANALOGUES” (THE GOVERNING COUNCIL OF THE UNIVERSITY OF TORONTO, priority 2022, published 2025).

Data set [1] has as its system Jurkat cells. Nature of the data set: Cell viability in Jurkat cells (WST-1). The class given is cell-based. The method, then:
In Jurkat cells treated with increasing concentrations of TeCar 7b, a concentration-dependent reduction in overall cell viability was observed (Table 1). When compared to Carfilzomib, similar concentrations of 7b (Te-Car) were needed to produce a 50% reduction in Jurkat cell viability.
Jurkat cells (CRL-2899) were purchased from ATCC were maintained in Rosewell Park Memorial Institute (RPMI) media supplemented with 10% fetal bovine serum (FBS) and 1% penicillin/streptomycin in a humidified 37° C. incubator with 5% CO2 (g), and cultured as per ATCC guidelines in culture flasks purchased from Starstedt.
Jurkat cells, at a concentration of approximately 12 500 cells/mL, were seeded in a 96 well plate in complete media in dosed with increasing concentrations (0-200 nM) of Carfilzomib or 7b (100 ul final volume) and left to incubate for 44 hours. Each concentration was repeated in triplicate. 10 uL of WST-1 was then added to each well, and the plate was allowed to incubate for 2 hours before the absorbance at 440 nm was measured. Absorbance signal in 100 uL complete media+10 uL WST-1 was first subtracted from each well before plotting the absorbance signal vs log (concentration). The concentration needed to see a 50% reduction in absorbance signal was then determined using GraphPad Prism software.
(Formazan colour is commonly taken as a measure of viable cells.)

Data set [2] relates to Jurkat cells. Nature of the data set: 7b and 8b incorporation into living Jurkat cells with or without Carfilzomib (CyTOF). The class given is cell-based. The following applies: 1 hour. The method, then: Co-dosing of cells with Te-Car 7b and Car lead to an approximately 50% reduction in Te labelling confirming the on-target labelling of modified compound (FIG. 10). This evidence supports that TeCar can be used to monitor Carfilzomib's target engagement in a more complex and disease-relevant samples.
Jurkat cells were seeded in […] plastic culture flasks at a concentration of approximately 5 million cells/mL for 24 hours prior to dosing. The cells were dosed with either Carfilzomib, 7b, or 8b at a final concentration of 500 nM, or a combination of Carfilzomib/7b (500 nM each), Carfilzomib/8b (500 nM each), or a DMSO control (final percentage of 0.5%) in complete media for 1 hour.
The media was then immediately removed, and the cells resuspended in 3 mL of cold phosphate-buffered saline (PBS), before being aliquoted into three 1 mL aliquots per each dosing regime. The samples were then prepped for CYTOF® analysis.
Briefly, each sample aliquot was washed three times with cold PBS (1 mL×3). The cells were then fixed, permeabilized, and stained with Cell-ID™ Intercalator-Ir stain in PBS (1 mL) for 1 hour at rt. […]
CYTOF® analysis was conducted the following day. […] The average ^128Te signal in the population of cells (events positive for 191 Ir and 193Ir signal) for each sample was determined.

Data set [3] has as its system pH2AX^Ser139. In words: pH2AX Western blotting in PANC-1 cells. Conditions: 1 μM, 24 and 48 hours. The class given is cell-based, Human. The method, then: Next, the ability of 1 to induce DSBs—the dominant type of DNA damage resulting from Top2 inhibition was investigated. In response to DSBs, a cascade of DNA repair mechanisms are triggered, including-phosphorylation of the histone variant H2AX at Ser139. Thus, the level of pH2AX^Ser139 serves as a reliable marker for Top2-linked DSBs. Western blotting was used to measure pH2AX^Ser139 in PANC-1 cells treated with 1 μM of either 1 or teniposide for 24 and 48 hours.
pH2AX Blotting: PANC-1 cells (0.5×10^6) cells were seeded in 60 mm plastic petri dishes (Corning Inc. NY) and incubated for 18 h. The spent medium is removed and replaced with fresh medium containing drug ([…]) and incubated for either 24 or 48h. Control cells were treated with DMSO only. The cells were then lysed with RIPA buffer (25 mM Tris·HCl PH 7.6, 150 mM NaCl, 1% NP-40, 1% sodium deoxycholate, 0.1% SDS) (ThermoFisher Scientific) containing Halt Protease Inhibitor Cocktail (Cat. No. 78410) and Halt Phosphatase Inhibitor Cocktail (Cat. No. 78420) as per manufacturer's protocol. […] Antibodies (Abcam, Cambridge, MA) targeting the following proteins were used H2AX (S139) (ab11174, polyclonal) and β-tubulin (ab6046, polyclonal).

The conditions of data set [4]: mice, depending on route of administration and dosing regimen; cited from earlier work.
The test system of data set [5] is HL-60 cells. Nature of the data set: WST-1 viability assay in HL-60 cells. The following applies: Homo sapiens, HL-60; 24 hours, maximum concentration of 50 μM; read-out: inhibition of proliferation of HL-60 cells. Format: cell-based. As to the method: The toxicity of 1 was compared to teniposide in HL-60 cells after incubation for 24 hours using a WST-1 viability assay.
WST-1 metabolic cytotoxicity assay: HL-60 cells (ATCC® CCL-240TM) were maintained in DMEM media with 2 mM L-glutamine (Gibco) supplemented with 20% calf serum and 100× dilution of penicillin-streptomycin solution (Gibco). Cells were maintained at 37° C. in a humidified atmosphere of 5% CO2 in air. HL-60 cells (100 pL) were seeded into a 96 well clear at a density of 5×10^5 cells/mL. Cells were treated with either DMSO or appropriate inhibitor from DMSO stocks. […] Cells were incubated for 24 h at 37° C. under a 5% CO2 atmosphere. WST-1 reagent (10 pL; Roche Diagnostics, 05015944001) was added to each well and gently mixed by pipetting. Cells were incubated for 1 h at 37° C. under 5% CO2 atmosphere. UV-vis absorbance measurements of each well at 450 nm was recorded using a TECAN Safire 2 plate reader. Data was background corrected against wells that contained cell growth media without cells and WST-1. Experiment was performed in triplicate.

In data set [6] the test system is pH2AX^Ser139. Nature of the data set: pH2AX immunohistochemistry of PANC-1 xenograft tumour sections. The class given is in vivo, mice. The following applies: 20 mg/kg IP, 2 hours. As to the method: PANC-1 xenograft-bearing mice were injected with either teniposide or the Te-teniposide analogue 1 IP. A dose of 20 mg/kg was selected based on literature reports detailing teniposide drug delivery strategies. After 2 hours, mice were sacrificed and tissues of interest were harvested, formalin fixed, and paraffin embedded. Tissue sections (5 um) were cut and mounted onto microscopy slides. The expression of pH2AX^Ser139 levels were first assessed by immunohistochemistry. Serial sections derived from PANC-1 xenograft tumours were stained with primary antibody and subsequently HRP-conjugated secondary antibody for standard brown staining. DSBs are indicated by large, discrete pH2AX^Ser139 foci. Representative images of immunostained slides show increased pH2AX^Ser139 levels in treated mice relative to saline injected control with clear, punctate staining (FIG. 7).

For data set [7], the system named is Top2. The following applies: fluorescence anisotropy and DNA relaxation gel assays; read-out: IC50 of teniposide in literature; cited from earlier work. (In fluorescence polarisation assays a small probe gives low polarisation when free and higher when bound to something large.)
The target of data set [8] is T1, Top2 (Homo sapiens, UniProt P11388).
T1 construct: purchased TopoGEN, Inc
T1 sequence (P11388 whole entry): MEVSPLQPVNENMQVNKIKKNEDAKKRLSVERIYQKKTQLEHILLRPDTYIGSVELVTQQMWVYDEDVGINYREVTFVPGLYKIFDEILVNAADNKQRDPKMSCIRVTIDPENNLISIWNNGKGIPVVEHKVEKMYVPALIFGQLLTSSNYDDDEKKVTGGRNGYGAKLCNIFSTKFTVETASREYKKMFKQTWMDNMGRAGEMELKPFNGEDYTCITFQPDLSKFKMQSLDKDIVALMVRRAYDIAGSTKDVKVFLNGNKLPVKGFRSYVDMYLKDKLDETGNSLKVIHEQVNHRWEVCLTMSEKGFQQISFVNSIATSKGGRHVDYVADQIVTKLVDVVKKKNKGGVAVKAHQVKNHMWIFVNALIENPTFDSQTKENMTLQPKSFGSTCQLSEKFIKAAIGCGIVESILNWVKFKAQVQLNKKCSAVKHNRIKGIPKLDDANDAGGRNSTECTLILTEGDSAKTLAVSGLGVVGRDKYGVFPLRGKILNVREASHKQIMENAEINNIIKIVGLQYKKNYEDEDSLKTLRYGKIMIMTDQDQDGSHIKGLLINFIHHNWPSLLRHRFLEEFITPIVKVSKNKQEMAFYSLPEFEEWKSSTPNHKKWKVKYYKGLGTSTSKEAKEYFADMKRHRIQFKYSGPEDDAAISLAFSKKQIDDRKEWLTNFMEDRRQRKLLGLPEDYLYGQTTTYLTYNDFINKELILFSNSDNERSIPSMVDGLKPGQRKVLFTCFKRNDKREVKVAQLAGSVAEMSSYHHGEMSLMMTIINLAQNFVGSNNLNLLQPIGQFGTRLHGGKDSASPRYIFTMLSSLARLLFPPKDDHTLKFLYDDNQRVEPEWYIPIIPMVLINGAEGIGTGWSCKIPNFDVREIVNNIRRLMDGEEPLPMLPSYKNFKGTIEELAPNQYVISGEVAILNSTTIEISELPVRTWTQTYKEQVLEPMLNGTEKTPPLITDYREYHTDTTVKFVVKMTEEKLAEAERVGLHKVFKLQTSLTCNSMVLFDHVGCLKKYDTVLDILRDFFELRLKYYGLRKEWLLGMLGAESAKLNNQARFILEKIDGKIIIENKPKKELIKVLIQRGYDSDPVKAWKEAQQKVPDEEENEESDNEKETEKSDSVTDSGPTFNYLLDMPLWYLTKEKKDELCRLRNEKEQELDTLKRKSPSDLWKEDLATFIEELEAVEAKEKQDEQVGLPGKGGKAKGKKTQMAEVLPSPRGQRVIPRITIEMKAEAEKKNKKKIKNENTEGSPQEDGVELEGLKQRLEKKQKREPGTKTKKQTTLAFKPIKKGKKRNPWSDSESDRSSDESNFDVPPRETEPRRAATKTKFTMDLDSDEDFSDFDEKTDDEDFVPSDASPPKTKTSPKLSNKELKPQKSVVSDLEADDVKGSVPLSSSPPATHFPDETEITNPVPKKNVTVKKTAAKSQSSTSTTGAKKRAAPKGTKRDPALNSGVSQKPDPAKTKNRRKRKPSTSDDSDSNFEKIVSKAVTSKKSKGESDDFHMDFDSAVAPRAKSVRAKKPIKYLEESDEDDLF
In words: Top2 decatenation assay using kinetoplast DNA. Conditions: 5, 10, 25 and 50 μM. Format: biochemical. As to the method:
The relative Top2 inhibitory activity of 1 in comparison to teniposide was evaluated in decatenation assays using kinetoplast DNA (kDNA). Decatenation of the DNA, catalyzed by Top2, can be readily resolved using agarose gel electrophoresis.
Top2 decatenation assay: The assay was performed according to manufacturer's protocol (TopoGEN, Inc.). The total reaction volume was 20 μL of assay buffer (120 mM KCl, 50 mM Tris-HCl, 10 mM MgCl2, 0.5 mM DTT, 0.5 mM ATP, and 30 μg/mL BSA) and 120 ng of kinetoplast DNA (kDNA) substrate. One unit of TopoII enzyme in was added to reaction microfuge tubes in the presence or absence of inhibitor. The reaction was incubated for 30 min at 37° C. The reaction was stopped by addition of 5 μL of stop buffer (5% sarkosyl, 0.025% bromophenolblue, and 50% glycerol). The samples were then analyzed using electrophoresis using a 1% agarose gel in Tris-borate-EDTA buffer with 0.5 pg/mL ethidium bromide stain. Gels were imaged using Syngene G: Box Gel Imager (Chemi-XT4 GENESys software with preset for ethidium bromide stained agarose gels). Band intensities were analyzed using ImageJ software.

Data set [9] relates to PANC-1 cells. Nature of the data set: alamarBlue viability assay in PANC-1 cells. Format: cell-based, Human. Conditions: maximum dose of 25 μM, 72 hours exposure. The method, then: Similarly, PANC1 cells were characterized for later in vivo experiments. Using an alamarBlue viability assay and a proliferative assay, PANC-1 cells were incubated with 1 or teniposide.
AlamarBlue assay: PANC-1 cells were seeded into black, clear-bottom 96-well assay plates (Corning; CLS3603) and incubated for 24 hours. The medium was replaced with […] of teniposide or compound 1. After 72 hours exposure to drug, alamarBlue (Thermo Fisher Scientific; DAL1100) cell viability reagent was added and incubated for 4 hours at 37° C. Fluorescence intensity was measured using an excitation wavelength of 560 nm and an emission of 590 nm. Cell viability was calculated by normalizing to an untreated control.
(Resazurin is reduced to fluorescent resorufin, in cell work by metabolically active cells.)

“And” between values parts separate entries of the source, which are not always exact repeats. Equal entries are not always repeated. Where two headings read alike, the source gives them in different places.

With `CC(C)C[C@H](NC(=O)[C@H](CCc1ccccc1)NC(=O)CN1CCOCC1)C(=O)N[C@@H](Cc1ccc[te]1)C(=O)N[C@@H](CC(C)C)C(=O)[C@@]1(C)CO1` (single isomer, unassigned) [7b], the IC50 in data set [1] (Homo sapiens, Jurkat, 44 h, read-out: IC50, viability of Jurkat cells, Average +/− SD, 44 hours, WST-1, average of 3 biological replicates) was 9.71 nM; in [1] (Homo sapiens, Jurkat, 44 h, read-out: IC50, viability of Jurkat cells, single biological replicate, 44 hours, WST-1, Biol. Rep 1-3), 9.48 nM; in [1] (read-out: IC50, viability of Jurkat cells, single biological replicate, 44 hours, WST-1, Biol. Rep 1-3), 9.87 nM and 9.78 nM. In data set [2] (7b and Carfilzomib 500 nM each, ^128Te), the “reduction in Te labelling on co-dosing with Carfilzomib” value is “approximately 50%”. Moreover, the “accumulation of tellurium within the cells” value in [2] (mass cytometry) is listed as “activity dependent accumulation”.

As for `CC(C)C[C@H](NC(=O)[C@H](CCc1ccccc1)NC(=O)CN1CCOCC1)C(=O)N[C@@H](Cc1ccccc1)C(=O)N[C@@H](CC(C)C)C(=O)[C@@]1(C)CO1` [Carfilzomib, reference compound], the IC50 in data set [1] (44 hours, WST-1, Biol. Rep 1-3, read-out: IC50, viability of Jurkat cells, single biological replicate) is 9.99 nM and 9.41 nM; in data set [1] (Homo sapiens, Jurkat, 44 h, WST-1, Biol. Rep 1-3, read-out: IC50, viability of Jurkat cells, single biological replicate) it was 9.13 nM; in data set [1] (Homo sapiens, Jurkat, 44 h, WST-1, average of 3 biological replicates, read-out: IC50, viability of Jurkat cells, Average +/− SD), 9.51 nM.

One may read the half-life as the time in which the quantity being followed falls by half. Consider `COc1cc([C@@H]2c3cc4c(cc3[C@@H](O[C@@H]3O[C@@H]5CO[C@@H](c6cccs6)O[C@H]5[C@H](O)[C@H]3O)[C@H]3COC(=O)[C@H]23)OCO4)cc(OC)c1O` [teniposide, reference compound], for which the “levels of pH2AX^Ser139 relative to DMSO-treated control” value in [3] is recorded as “Increased levels”. For the same compound, the half-life in data set [4] is 1 to 5 h. Besides, the inhibition at 50 µM in [5] was ≤ 60%. The “pH2AX^Ser139 levels in tumour sections relative to saline injected control” value in data set [6] was “increased”. Also, the IC50 in data set [7] is 1.3 to 9.8 µM. Further, the “inhibition of the decatenation reaction” value in data set [8] is listed as “dose-dependent inhibition”. Moreover, the “loss of cell viability in PANC-1 cells” value in data set [9] was “almost complete loss of cell viability”.
